Source: ChEMBL document CHEMBL1201862, “PubChem BioAssay data set” (2004)
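Following 48 hours of exposure in 96-well plates, responses at five concentrations were used to interpolate endpoints linearly. GI50 = concentration required for 50% inhibition of growth.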 Activity calls are given as the source filed them. Rule as the data show it: active = GI50 up to about 1.1 µM and inactive = higher.

Legend:
Experiment in all cases: NCI-60 cell line screen, 48 h
786-0 = test system: 786-0
BT-549 = test system: BT-549
CCRF-CEM = test system: CCRF-CEM
EKVX = test system: EKVX
HCC 2998 = test system: HCC 2998
HCT-15 = test system: HCT-15
HOP-62 = test system: HOP-62
LOX IMVI = test system: LOX IMVI
MDA-MB-435 = test system: MDA-MB-435
NCI-H226 = test system: NCI-H226
NCI-H522 = test system: NCI-H522
NCI/ADR-RES = test system: NCI/ADR-RES
OVCAR-3 = test system: OVCAR-3
OVCAR-5 = test system: OVCAR-5
RPMI-8226 = test system: RPMI-8226
SF-268 = test system: SF-268
SK-MEL-2 = test system: SK-MEL-2
SK-OV-3 = test system: SK-OV-3
T47D = test system: T47D
UACC-62 = test system: UACC-62

Row | SMILES | GI50 (786-0) | GI50 (BT-549) | GI50 (CCRF-CEM) | GI50 (EKVX) | GI50 (HCC 2998) | GI50 (HCT-15) [µM] | GI50 (HOP-62) | GI50 (LOX IMVI) | GI50 (MDA-MB-435) | GI50 (NCI-H226) | GI50 (NCI-H522) | GI50 (NCI/ADR-RES) | GI50 (OVCAR-3) | GI50 (OVCAR-5) | GI50 (RPMI-8226) | GI50 (SF-268) | GI50 (SK-MEL-2) | GI50 (SK-OV-3) | GI50 (T47D) | GI50 (UACC-62)
1 | c1cc(C2N3CCCN2CC3)ccn1 (stereo not given) | 56.2 µM (inactive) | > 100 µM (inactive) | 33.4 µM (inactive) | > 100 µM (inactive) | > 100 µM (inactive) | > 100 | > 100 µM (inactive) | 57.9 µM (inactive) | 25.5 µM (inactive) | > 100 µM (inactive) | 4.85 µM (inactive) | 61 µM (inactive) | 29.4 µM (inactive) | > 100 µM (inactive) | 24.1 µM (inactive) | 8.38 µM (inactive) | > 100 µM (inactive) | > 100 µM (inactive) | > 100 µM (inactive) | > 100 µM (inactive)
2 | Cc1cc(S(=O)(=O)/N=C(\NN)NNc2cccc(C(F)(F)F)n2)c(S)cc1Cl | 19.4 µM (inactive) | 13.3 µM (inactive) | 23.3 µM (inactive) | 22.6 µM (inactive) | 16.5 µM (inactive) | 18.8 | 19.6 µM (inactive) | 18.9 µM (inactive) | 18.2 µM (inactive) | 18.3 µM (inactive) | 24.4 µM (inactive) | 19.8 µM (inactive) | 22.1 µM (inactive) | 14.9 µM (inactive) | 32.1 µM (inactive) | 21.4 µM (inactive) | 25.5 µM (inactive) | 25.4 µM (inactive) | 17.8 µM (inactive) | 16.7 µM (inactive)
3 | CCOC(=O)C1=C(C)N(C)C23OC4(C(=O)OC)CC2c2ccccc2C1N3C4=O (stereo not given) | > 100 µM (inactive) | > 100 µM (inactive) | 79.6 µM (inactive) | > 100 µM (inactive) | 12.4 µM (inactive) | 63.7 | > 100 µM (inactive) | > 100 µM (inactive) | 30.8 µM (inactive) | > 100 µM (inactive) | 37.4 µM (inactive) | 86.9 µM (inactive) | > 100 µM (inactive) | > 100 µM (inactive) | 44.8 µM (inactive) | > 100 µM (inactive) | > 100 µM (inactive) | > 100 µM (inactive) | > 100 µM (inactive) | > 100 µM (inactive)
4 | CN(Cc1cnc2nc(N)nc(N)c2n1)c1ccc(C(=O)N[C@@H](CCC(=O)O)C(=O)O)cc1 [METHOTREXATE] | 0.034 µM (active) | 69.5 µM (inactive) | 0.0296 µM (active) | 18.4 µM (inactive) | 0.119 µM (active) | 0.0343 | 0.0403 µM (active) | 0.0274 µM (active) | 0.0341 µM (active) | 20 µM (inactive) | 0.25 µM (active) | 0.0929 µM (active) | 0.433 µM (active) | 0.916 µM (active) | 0.0661 µM (active) | 0.0409 µM (active) | 102 µM (inactive) | 20.7 µM (inactive) | 28 µM (inactive) | 0.0286 µM (active)
5 | COC(=O)c1cc(C(=CCC[C@H]2CC[C@@]3(C)C(CCC4C3CC[C@@]3(C)C4CC[C@@H]3C(C)CCCC(C)C)C2)c2cc(Cl)c(OC(=O)c3ccccc3)c(C(=O)OC)c2)cc(Cl)c1OC(=O)c1ccccc1 (stereo not given in full) | > 10 µM (inactive) | > 10 µM (inactive) | > 10 µM (inactive) | > 10 µM (inactive) | > 10 µM (inactive) | > 10 | > 10 µM (inactive) | > 10 µM (inactive) | > 10 µM (inactive) | > 10 µM (inactive) | > 10 µM (inactive) | > 10 µM (inactive) | > 10 µM (inactive) | > 10 µM (inactive) | > 10 µM (inactive) | > 10 µM (inactive) | > 10 µM (inactive) | > 10 µM (inactive) | > 10 µM (inactive) | > 10 µM (inactive)
6 | C[C@H]1[C@H](C)CC[C@]2(C(=O)OC3OC(CO)C(O)C(O)C3O)CC[C@]3(C)C(=CC[C@@H]4[C@@]5(C)C[C@@H](O)[C@@H]6OC(=O)c7cc(O)c(O)c(O)c7-c7c(cc(O)c(O)c7O)C(=O)OC[C@@]6(CO)[C@@H]5CC[C@]43C)[C@H]12 (stereo not given in full) | 23.2 µM (inactive) | > 100 µM (inactive) | 43.5 µM (inactive) | > 100 µM (inactive) | > 100 µM (inactive) | 76.7 | > 100 µM (inactive) | 17.8 µM (inactive) | 19.6 µM (inactive) | > 100 µM (inactive) | > 59.3 µM (inactive) | > 100 µM (inactive) | > 46.1 µM (inactive) | > 75.3 µM (inactive) | 98.2 µM (inactive) | > 100 µM (inactive) | > 100 µM (inactive) | 98.6 µM (inactive) | > 100 µM (inactive) | > 87.7 µM (inactive)
